# According to patent US11712438B2, “Phenyl derivatives as PGE2 receptor modulators” (IDORSIA PHARMACEUTICALS LTD, priority 2017, dated 2023):
# Columns and labels:
# Assay in all cases: cell-based
# PTRGER4 (EP4) = PTRGER4 (EP4) (Homo sapiens, UniProt P35408);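 also: assay plate preincubated 15 min at 37 °C, after which PGE2 was added at 20 nM final and incubation continued 120 min at 37 °C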
# EP2 = EP2 (Homo sapiens, UniProt P43116);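 also: SF295 glioblastoma cells with endogenous EP2 only, PGE2-stimulated cAMP accumulation read by HTRF competitive immunoassay, 45 min pre-incubation then 30 min at room temperature, IBMX in buffer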
# Experimental: The antagonistic activities of the compounds of formula (I) on the EP2 and EP4 receptors are also determined in accordance with the following experimental method.
# Human tumor cell lines expressing endogenously either EP4 or EP2 are used and cAMP accumulation in cells upon PGE2 stimulation is monitored. SF295 glioblastoma cells express high endogenous EP2 and no EP4,whereas BT549 breast cancer cells, express high endogenous EP4 levels and very low EP2 levels.
# (§1) As a detection method for cAMP the HTRF (homogeneous time resolved fluorescence) Cisbio kit (HTRF cAMP dynamic 2 kit 20′000 tests Cisbio Cat. #62AM4PEC) was used, which is based on a competitive immunoassay using a Cryptate-labeled anti-cAMP antibody and d2-labeled cAMP. Native cAMP produced by cells or unlabeled cAMP (for the standard curve) compete with exogenously added d2-labeled cAMP (acceptor) for binding to monoclonal anti-cAMP-Eu3+ Cryptate (donor). A FRET signal (Fluorescence Resonance Energy Transfer) is obtained only if the labeled anti-cAMP antibody binds the d2 labelled cAMP, thus the specific signal (i.e. energy transfer) is inversely proportional to the concentration of cAMP in the standard or sample.
# The SF295 cells (NCI/No. 0503170) are detached from culture dishes with a cell dissociation buffer (Invitrogen, 13151-014), and collected in growing medium (GM: RPM11640 (Invitrogen 21875)/10% FCS, 1% Penicilin/streptomycin). Cells are counted washed and resuspended in assay buffer (AB; HBSS, 20 mM HEPES, 0.2% BSA; 2 mM IBMX). 4′000 cells in 5 μl of AB are seeded per well of a small volume 384 well plate (black with flat bottom, Greiner 784076).
# PGE2 (Cayman 14010, stock solution: 750 in DMSO) is used as agonist at 75 nM final concentration, corresponding to EC80.
# Two point five microliters of diluted compounds are transferred into the assay plate. Plate is pre-incubated 45 minutes at room temperature. Subsequently, 2.5 microliters of PGE2 (final conc. 75 nM) are transferred into the assay plate. Plate is incubated 30 minutes at room temperature.
# (§2) For each compound concentration the percentage of cAMP compared to DMSO control value as average±STDEV (each concentration is measured in duplicate) is calculated.
# PTGER2 (EP2) = PTGER2 (EP2) (Homo sapiens, UniProt P43116)
# EP4 = EP4 (Homo sapiens, UniProt P35408);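 also: inhibition of PGE2-evoked (6 nM) cAMP accumulation in BT549 breast cancer cells endogenously expressing EP4, cAMP read by HTRF competitive immunoassay after 30 min at room temperature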
# Chain of EP4 (P35408 whole entry): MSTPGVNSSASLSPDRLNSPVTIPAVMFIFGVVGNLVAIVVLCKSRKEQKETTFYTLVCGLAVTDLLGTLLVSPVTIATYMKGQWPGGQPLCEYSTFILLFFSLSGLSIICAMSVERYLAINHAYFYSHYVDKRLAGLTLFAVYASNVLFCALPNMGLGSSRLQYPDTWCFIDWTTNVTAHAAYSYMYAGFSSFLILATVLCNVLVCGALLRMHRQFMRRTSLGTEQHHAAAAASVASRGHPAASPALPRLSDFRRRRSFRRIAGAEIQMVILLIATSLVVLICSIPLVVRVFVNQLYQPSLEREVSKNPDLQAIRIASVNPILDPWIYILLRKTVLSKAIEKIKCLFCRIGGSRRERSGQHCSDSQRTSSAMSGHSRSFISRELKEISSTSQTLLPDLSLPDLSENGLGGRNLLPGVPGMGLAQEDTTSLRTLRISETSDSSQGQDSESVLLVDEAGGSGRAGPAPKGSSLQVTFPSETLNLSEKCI
# Text: Human tumor cell lines expressing endogenously either EP4 or EP2 are used and cAMP accumulation in cells upon PGE2 stimulation is monitored.
# as §1
# The BT549 cells (NCI/No. 0507282) are detached from culture dishes with a cell dissociation buffer (Invitrogen, 13151-014), and collected in growing medium (GM: RPM11640 (Invitrogen 21875)/10% FCS, 1% Penicilin/streptomycin). Cells are counted washed and resuspended in assay buffer (AB; HBSS, 20 mM HEPES, 0.2% BSA; 2 mM IBMX). 4′000 cells in 5 μl of AB are seeded per well of a small volume 384 well plate (black with flat bottom, Greiner 784076).
# Stock solutions of test compounds are made at a concentration of 10 mM in DMSO, and serially diluted in DMSO to concentrations required for inhibition dose response curves (tested concentration range 30 μM-0.4 nM; 30 μM-0.015 nM or 1 μM-0.01 nM).
# PGE2 (Cayman 14010, stock solution: 6 μM in DMSO) is used as agonist at 6 nM final concentration, corresponding to EC80.
# Two point five microliters of diluted compounds are transferred into the assay plate. Plate is pre-incubated 45 minutes at room temperature. Subsequently, 2.5 microliters of PGE2 (final conc. 6 nM) are transferred into the assay plate. Plate is incubated 30 minutes at room temperature.
# as §2
# When compounds were measured multiple times, mean values are given.
# Chain of PTRGER4 (EP4) (P35408 whole entry): as above
# Chain of PTGER2 (EP2) (P43116 whole entry): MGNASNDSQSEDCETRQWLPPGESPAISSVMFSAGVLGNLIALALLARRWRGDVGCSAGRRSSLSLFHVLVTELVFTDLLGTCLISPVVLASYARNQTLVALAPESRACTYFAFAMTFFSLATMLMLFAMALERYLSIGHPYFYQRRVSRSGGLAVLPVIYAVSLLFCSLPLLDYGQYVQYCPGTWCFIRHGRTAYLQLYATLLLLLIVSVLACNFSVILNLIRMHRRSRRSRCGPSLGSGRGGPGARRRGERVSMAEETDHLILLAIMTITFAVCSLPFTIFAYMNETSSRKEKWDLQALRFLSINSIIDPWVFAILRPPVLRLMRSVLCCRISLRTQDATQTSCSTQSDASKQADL
# Chain of EP2 (P43116 whole entry): as above
SMILES,IC50 (PTRGER4 (EP4)) [nM],IC50 (EP2) [nM],IC50 (PTGER2 (EP2)) [nM],IC50 (EP4) [nM]
"CCOc1cc(-c2cc(NCCc3c(F)cc(Br)cc3F)ncn2)ccc1C(=O)O [Example 180, 4-{6-[2-(4-Bromo-2,6-difluoro-phenyl)-ethylamino]-pyrimidin-4-yl}-2-ethoxy-benzoic acid]",674,52,119,221
"CCOc1cc(-c2cc(NCCc3c(F)cc(F)cc3F)ncn2)sc1-c1noc(=O)[nH]1 [Example 101, 3-(3-Ethoxy-5-{6-[2-(2,4,6-trifluoro-phenyl)-ethylamino]-pyrimidin-4-yl}-thiophen-2-yl)-[1,2,4]oxadiazol-5(4H)-one]",103,62,44,82
"CCOc1cc(-c2cc(NCCc3ccc(Br)cc3OC)ncn2)ccc1C(=O)O [Example 50, 4-{6-[2-(4-Bromo-2-methoxy-phenyl)-ethylamino]-pyrimidin-4-yl}-2-ethoxy-benzoic acid]",1310,259,264,910
CCOc1cc(-c2cc(NCCc3ccc(F)cc3C#N)ncn2)sc1-c1noc(=O)[nH]1 [Example 97],95,144,131,127
"CCOc1cc(-c2cc(NCCc3c(F)cc(Br)cc3F)ncn2)ccc1CC(=O)O [Example 49, (4-{6-[2-(4-Bromo-2,6-difluoro-phenyl)-ethylamino]-pyrimidin-4-yl}-2-ethoxy-phenyl)-acetic acid]",143,246,139,159
"CCOc1cc(-c2cc(NCCc3cc(OC)ccc3OC)ncn2)sc1C(=O)O [Example 72, 5-{6-[2-(2,5-Dimethoxy-phenyl)-ethylamino]-pyrimidin-4-yl}-3-ethoxy-thiophene-2-carboxylic acid]",104,40,77,42
"COc1cc(-c2cc(NCCc3c(F)cc(Br)cc3F)ncn2)sc1C(=O)O [Example 176, 5-{6-[2-(4-Bromo-2,6-difluoro-phenyl)-ethylamino]-pyrimidin-4-yl}-3-methoxy-thiophene-2-carboxylic acid]",75,9,22,6
"CCOc1cc(-c2cc(NCCc3ccc(Cl)cc3Cl)ncn2)sc1C(=O)O [Example 66, 5-{6-[2-(2,4-Dichloro-phenyl)-ethylamino]-pyrimidin-4-yl}-3-ethoxy-thiophene-2-carboxylic acid]",133,27,16,53
"CCOc1cc(-c2cc(NCCc3ccc(Br)cc3)ncn2)sc1CC(=O)O [Example 17, (5-{6-[2-(4-Bromo-phenyl)-ethylamino]-pyrimidin-4-yl}-3-ethoxy-thiophen-2-yl)-acetic acid]",147,189,202,293
"O=C(O)c1ccc2[nH]c(-c3cc(NCCc4c(F)cc(Br)cc4F)ncn3)cc2c1 [Example 168, 2-{6-[2-(4-Bromo-2,6-difluoro-phenyl)-ethylamino]-pyrimidin-4-yl}-1H-indole-5-carboxylic acid]",196,1690,190,2000
"CCOc1cc(-c2cc(NCCc3cc(Br)ccc3SC)ncn2)sc1-c1noc(=O)[nH]1 [Example 275, 3-(5-{6-[2-(5-Bromo-2-methylsulfanyl-phenyl)-ethylamino]-pyrimidin-4-yl}-3-ethoxy-thiophen-2-yl)-[1,2,4]oxadiazol-5(4H)-one]",90,163,125,18
"CCCc1cc(-c2cc(NCCc3ccc(C(F)(F)F)cc3OCC)ncn2)ccc1C(=O)O [Example 213, 4-{6-[2-(2-Ethoxy-4-trifluoromethyl-phenyl)-ethylamino]-pyrimidin-4-yl}-2-propyl-benzoic acid]",217,184,71,300
"CCCOc1cc(-c2cc(NCCc3c(F)cc(Br)cc3F)ncn2)ccc1C(=O)O [Example 36, 4-{6-[2-(4-Bromo-2,6-difluoro-phenyl)-ethylamino]-pyrimidin-4-yl}-2-propoxy-benzoic acid]",684,91,70,951
"COc1cc(-c2cc(NCCc3c(F)cc(Br)cc3F)ncn2)ccc1-c1cc(O)no1 [Example 174, 5-(4-{6-[2-(4-Bromo-2,6-difluoro-phenyl)-ethylamino]-pyrimidin-4-yl}-2-methoxy-phenyl)-isoxazol-3-ol]",108,265,36,94
"CCOc1cc(-c2cc(NCCc3c(F)cc(Br)cc3F)ncn2)ccc1Cc1noc(=S)[nH]1 [Example 283, 3-(4-{6-[2-(4-Bromo-2,6-difluoro-phenyl)-ethylamino]-pyrimidin-4-yl}-2-ethoxy-benzyl)-[1,2,4]oxadiazole-5(4H)-thione]",245,959,118,595
"O=c1[nH]c(-c2ccc(-c3cc(NCCc4c(F)cc(Br)cc4F)ncn3)cc2)no1 [Example 235, 3-(4-{6-[2-(4-Bromo-2,6-difluoro-phenyl)-ethylamino]-pyrimidin-4-yl}-phenyl)-[1,2,4]oxadiazol-5(4H)-one]",89,203,43,149
"CC(C)COc1cc(-c2cc(NCCc3c(F)cc(Br)cc3F)ncn2)ccc1C(=O)O [Example 237, 4-{6-[2-(4-Bromo-2,6-difluoro-phenyl)-ethylamino]-pyrimidin-4-yl}-2-isobutoxy-benzoic acid]",419,128,72,668

# Stronger by IC50 (PTRGER4 (EP4)), values ahead:
IC50 (PTRGER4 (EP4)) [nM],IC50 (EP2) [nM],IC50 (PTGER2 (EP2)) [nM],IC50 (EP4) [nM],SMILES
3,54,18,11,"CCOc1cc(-c2cc(NCCc3ccc(Br)cc3)ncn2)sc1-c1nnn[nH]1 [Example 131, [2-(4-Bromo-phenyl)-ethyl]-{6-[4-ethoxy-5-(1H-tetrazol-5-yl)-thiophen-2-yl]-pyrimidin-4-yl}-amine]"
2,15,13,9,"CCOc1nc(-c2cc(NCCc3c(F)cc(Br)cc3F)ncn2)sc1-c1noc(=O)[nH]1 [Example 150, 3-(2-{6-[2-(4-Bromo-2,6-difluoro-phenyl)-ethylamino]-pyrimidin-4-yl}-4-ethoxy-thiazol-5-yl)-[1,2,4]oxadiazol-5(4H)-one]"
5,72,46,12,"CCOc1cc(-c2cc(NCCc3c(F)cc(Br)cc3F)ncn2)sc1C(N)=O [Example 279, 5-{6-[2-(4-Bromo-2,6-difluoro-phenyl)-ethylamino]-pyrimidin-4-yl}-3-ethoxy-thiophene-2-carboxylic acid amide]"
5,17,10,11,"CCOc1cc(-c2cc(NCCc3cccc(OC)c3OC)ncn2)sc1-c1noc(=O)[nH]1 [Example 119, 3-(5-{6-[2-(2,3-Dimethoxy-phenyl)-ethylamino]-pyrimidin-4-yl}-3-ethoxy-thiophen-2-yl)-[1,2,4]oxadiazol-5(4H)-one]"
16,244,692,26,"CCOc1cc(-c2cc(NCCc3ccc(OC)c(O)c3)ncn2)sc1-c1noc(=O)[nH]1 [Example 117, 3-(3-Ethoxy-5-{6-[2-(3-hydroxy-4-methoxy-phenyl)-ethylamino]-pyrimidin-4-yl}-thiophen-2yl)-[1,2,4]oxadiazol-5(4H)-one]"
20,23,29,12,"CCc1cc(-c2cc(NCCc3c(F)cc(Br)cc3F)ncn2)sc1C(=O)O [Example 29, 5-{6-[2-(4-Bromo-2,6-difluoro-phenyl)-ethylamino]-pyrimidin-4-yl}-3-ethyl-thiophene-2-carboxylic acid]"
3,113,47,29,"CCOc1cc(-c2cc(NCCc3ccc(Br)c(C)c3)ncn2)sc1-c1noc(=O)[nH]1 [Example 113, 3-(5-{6-[2-(4-Bromo-3-methyl-phenyl)-ethylamino]-pyrimidin-4-yl}-3-ethoxy-thiophen-2-yl)-[1,2,4]oxadiazol-5(4H)-one]"
29,134,20,79,"CCNc1cc(-c2cc(NCCc3c(F)cc(Br)cc3F)ncn2)ccc1C(N)=O [Example 217, 4-{6-[2-(4-Bromo-2,6-difluoro-phenyl)-ethylamino]-pyrimidin-4-yl}-2-ethylamino-benzamide]"
72,511,127,405,"CCOc1cc(-c2cc(NCCc3c(F)cc(Br)cc3F)ncn2)ccc1NC=O [Example 240, N-(4-{6-[2-(4-Bromo-2,6-difluoro-phenyl)-ethylamino]-pyrimidin-4-yl}-2-ethoxy-phenyl)-formamide]"
36,39,62,39,"CCOc1cc(-c2cc(NCCc3c(F)cccc3F)ncn2)sc1-c1noc(=O)[nH]1 [Example 103, 3-(5-{6-[2-(2,6-Difluoro-phenyl)-ethylamino]-pyrimidin-4-yl}-3-ethoxy-thiophen-2-yl)-[1,2,4]oxadiazol-5(4H)-one]"
2,46,20,5,"CC(C)Oc1cc(-c2cc(NCCc3c(F)cc(Br)cc3F)ncn2)sc1-c1noc(=O)[nH]1 [Example 162, 3-(5-{6-[2-(4-Bromo-2,6-difluoro-phenyl)-ethylamino]-pyrimidin-4-yl}-3-isopropoxy-thiophen-2-yl)-[1,2,4]oxadiazol-5(4H)-one]"
